Source: patent US11820961B2, “Musk compositions and methods of use thereof” (Takasago International Corporation, priority 2015, dated 2023)

What was measured:
salivary alpha-amylase = salivary alpha-amylase level before and after a stress test (kinetic reaction assay kit); format: in vivo, human; details: Table 6; before vs immediately after ten minute stress test; about 10-15 panelists; DPG = +60.7%
From the text: Salivary alpha-amylase is widely used as a biomarker for acute stress. The purpose of this study was to investigate the influence of individual fragrance compounds, particularly musk compounds, on a subject's salivary alpha-amylase levels before and after exposure to a stressor. The subject sniffed each musk compound, then was exposed to a stressor. The goal was to identify one or more specific musk compounds which caused the least amount of change in salivary alpha-amylase levels or decreased a subject's salivary alpha-amylase levels compared to before administration, thereby reducing or inhibiting a response to stress stimuli. […] The p values of the control as compared to each musk compound were calculated as follows: rosamusk (p=0.0366), habanolide (p=0.1163), ambrettolide (p=0.1397).
Twelve to fourteen female panelists age 30-45 participated in this study for each of the test materials. Stress was induced using a timed ten minute mathematical/word test in a small group competition setting. The musk material was introduced at intervals during the stress test.
Saliva was collected before and immediately after the stress test. Saliva samples were assayed for salivary alpha-amylase activity using a commercially available kinetic reaction assay kit (Salimetrics®, State College, Pa.).
(§1) Fourteen female panelists age 30-45 participated in this study. Stress was induced using a timed ten minute mathematical/word test in a small group competition setting. Fragrance was introduced at intervals during the stress test. Saliva was collected before (Pre) and immediately after (Post) the stress test. Saliva samples were assayed for salivary alpha-amylase using a commercially available kinetic reaction assay kit and for salivary cortisol using a highly sensitive enzyme immunoassay kit (Salimetrics®, State College, Pa.).
(§2) Stress was induced in a number of panelists (about 10-15) for each tested compound using a timed ten minute mathematical/word test in a small group competition setting. The test compound was introduced at intervals during the stress test.
(§3) Saliva was collected before and immediately after the stress test. Saliva samples were assayed for salivary cortisol levels and salivary alpha-amylase activity using a commercially available kinetic reaction assay kit (Salimetrics®, State College, Pa.).
(§4) Methodology for number of drops. Ten to twenty-four panelists age 30-45 participated in this study. The amount of fragrance tested was divided equally and applied onto 6 blotter cards each 3 by 5 inches in size. They were weighed and placed in the test room 30 minutes before the stress test to equilibrate.
(§5) Stress was induced using a timed ten-minute mathematical/word test in a small group competition setting. The blotter cards were removed and weighed again after the stress test. […]

salivary cortisol = salivary cortisol level before and after a stress test (enzyme immunoassay kit); format: in vivo, human; details: Table 6; before vs immediately after ten minute stress test; about 10-15 panelists; DPG = −10.9%
From the text: Salivary cortisol is widely used as a biomarker for stress. The purpose of this study was to investigate the influence of individual fragrance compounds, particularly musk compounds, on a subject's cortisol levels before and after exposure to a stressor. The subject sniffed each musk compound, then was exposed to a stressor. The goal was to identify one or more specific musk compounds which caused the least amount of change in cortisol levels or decreased a subject's cortisol levels compared to before administration, thereby reducing or inhibiting a response to stress stimuli.
as §1, §2, §3, §4, §5

[1] = chassis-air partition coefficient, BC-162 shampoo chassis; format: physicochemical
From the text: (§6) The chassis-air partition coefficient can be measured for materials in various chassis.
(§7) Ki,chassis-air is the chassis-air partition coefficient for component i in the fragrance formula
(§8) Ci, chassis is the concentration of component i in the product formula chassis in molarity, M
(§9) Ci, air is the concentration of component i in the headspace air in equilibrium with the formula chassis in molarity, M
(§10) For the “Example Accord” in the BC-162 shampoo chassis components, the log chassis-air partition coefficients are as listed in Table 11.

[2] = chassis-air partition coefficient, APDO soft solid chassis; format: physicochemical
From the text: as §6, §7, §8, §9, §10

SMILES: CC(=O)C(C)CC[C@H]1CCC(C)C1(C)C (stereo partly drawn) [3-methyl-5-((1R)-2,2,3-trimethylcyclopentyl)pentan-2-one]
- Salivary Amylase Data (change in salivary alpha-amylase) (salivary alpha-amylase): −6.1%

SMILES: CC1=CCC(C/C=C(\C)CO)C1(C)C (stereo not drawn) [Hindinol ®, (E)-2-methyl-4-(2,2,3-trimethyl-1-cyclopent-3-enyl)but-2-en-1-ol]
- Salivary Amylase Data (change in salivary alpha-amylase) (salivary alpha-amylase): +82.3%
- Cortisol Data (change in salivary cortisol) (salivary cortisol): −25.0%

SMILES: CC1CCCCCCCCCCCCC(=O)C1 [L-Muscone]
- Salivary Amylase Data (change in salivary alpha-amylase) (salivary alpha-amylase): +14.5%
- Cortisol Data (change in salivary cortisol) (salivary cortisol): +25.6%

SMILES: CC(=O)c1cc2c(cc1C)C(C)(C)C(C)C2(C)C (stereo not drawn) [Phantolide, 1-(1,1,2,3,3,6-hexamethyl-2H-inden-5-yl)ethanone]
- Salivary Amylase Data (change in salivary alpha-amylase) (salivary alpha-amylase): −19.2%
- Cortisol Data (change in salivary cortisol) (salivary cortisol): −12.3%

SMILES: C=C.CCCCCCCCCCCC(=O)O [ZENOLIDE, ethylene dodecanoate]
- logK, BC162 (log chassis-air partition coefficient) [1]: 6.131
- logK, APDO Soft Solid (log chassis-air partition coefficient) [2]: 6.966
